Source: ChEMBL document CHEMBL1201862, “PubChem BioAssay data set” (2004)
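Five concentrations, 48 hours, 96-well plates. At the GI50, growth is halved.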 Active and inactive are the calls of the source. Rule as the data show it: active = GI50 up to about 1.1 µM and inactive = higher.

Key:
Test in all cases: NCI tumour cell line growth inhibition, 48 h
SF-295 = system: SF-295
SNB-78 = system: SNB-78
SF-539 = system: SF-539
ACHN = system: ACHN
RXF 631 = system: RXF 631
SK-MEL-5 = system: SK-MEL-5
MOLT-4 = system: MOLT-4
KM12 = system: KM12
Malme-3M = system: Malme-3M
LXFL 529 = system: LXFL 529
M19-MEL = system: M19-MEL
NCI-H522 = system: NCI-H522
NCI-H23 = system: NCI-H23
HT-29 = system: HT-29
OVCAR-4 = system: OVCAR-4
UACC-62 = system: UACC-62
HCT-116 = system: HCT-116
COLO 205 = system: COLO 205
LOX IMVI = system: LOX IMVI
HCT-15 = system: HCT-15
SW-620 = system: SW-620
RXF 393 = system: RXF 393
SK-MEL-2 = system: SK-MEL-2
KM-20L2 = system: KM-20L2
TK-10 = system: TK-10
DMS-273 = system: DMS-273
K562 = system: K562
UACC-257 = system: UACC-257
UO-31 = system: UO-31
786-0 = system: 786-0
OVCAR-3 = system: OVCAR-3
NCI-H460 = system: NCI-H460
SR = system: SR
SK-MEL-28 = system: SK-MEL-28
OVCAR-5 = system: OVCAR-5
HCC 2998 = system: HCC 2998
SNB-19 = system: SNB-19
XF498 = system: XF498
DLD-1 = system: DLD-1
OVCAR-8 = system: OVCAR-8
DMS-114 = system: DMS-114
IGROV-1 = system: IGROV-1
SN12C = system: SN12C
M14 = system: M14
RPMI-8226 = system: RPMI-8226
U-251 = system: U-251
SNB-75 = system: SNB-75
CAKI-1 = system: CAKI-1
HOP-62 = system: HOP-62
A549 = system: A549
SF-268 = system: SF-268
NCI-H226 = system: NCI-H226
SK-OV-3 = system: SK-OV-3
A498 = system: A498
HL-60 = system: HL-60
EKVX = system: EKVX
CCRF-CEM = system: CCRF-CEM
HOP-92 = system: HOP-92

`O=C(c1ccccc1)[C@H]1Nc2ccc(Cl)cc2C2c3ccccc3CC21` (some centres undefined) was tested, and the GI50 (SF-295) was 18.5 µM (inactive), the GI50 (SNB-78) was > 100 µM (inactive) and the GI50 (SF-539) was > 100 µM (inactive). The GI50 (ACHN) was 45.2 µM (inactive), the GI50 (RXF 631) was 27.8 µM (inactive) and the GI50 (SK-MEL-5) was 21.3 µM (inactive). The GI50 (MOLT-4) was 11.9 µM (inactive), the GI50 (KM12) was > 100 µM (inactive) and the GI50 (Malme-3M) was > 10 µM (inactive). For the same compound, the GI50 (LXFL 529) was 27.8 µM (inactive), the GI50 (M19-MEL) was 71.4 µM (inactive) and the GI50 (NCI-H522) was 95.3 µM (inactive). The GI50 (NCI-H23) was 60.3 µM (inactive), the GI50 (HT-29) was 83.9 µM (inactive) and the GI50 (OVCAR-4) was 22.2 µM (inactive). For the same compound, the GI50 (UACC-62) was > 10 µM (inactive), the GI50 (HCT-116) was 26 µM (inactive) and the GI50 (COLO 205) was 41.1 µM (inactive). For the same compound, the GI50 (LOX IMVI) was 50.4 µM (inactive), the GI50 (HCT-15) was 60 µM and the GI50 (SW-620) was 50.5 µM (inactive). For the same compound, the GI50 (RXF 393) was 10.5 µM (inactive), the GI50 (SK-MEL-2) was 67 µM (inactive) and the GI50 (KM-20L2) was > 100 µM (inactive). For the same compound, the GI50 (TK-10) was 57.1 µM (inactive), the GI50 (DMS-273) was 66.8 µM (inactive) and the GI50 (K562) was 25.6 µM (inactive). For the same compound, the GI50 (UACC-257) was 18.5 µM (inactive), the GI50 (UO-31) was > 100 µM (inactive) and the GI50 (786-0) was 30.8 µM (inactive). The GI50 (OVCAR-3) was 21 µM (inactive), the GI50 (NCI-H460) was 63.5 µM (inactive) and the GI50 (SR) was 71.6 µM (inactive). For the same compound, the GI50 (SK-MEL-28) was 32.3 µM (inactive), the GI50 (OVCAR-5) was > 100 µM (inactive) and the GI50 (HCC 2998) was 19.9 µM (inactive). The GI50 (SNB-19) was > 100 µM (inactive), the GI50 (XF498) was 21.5 µM (inactive) and the GI50 (DLD-1) was > 100 µM (inactive). The GI50 (OVCAR-8) was 53.8 µM (inactive), the GI50 (DMS-114) was 69.3 µM (inactive) and the GI50 (IGROV-1) was > 100 µM (inactive). For the same compound, the GI50 (SN12C) was 83.2 µM (inactive), the GI50 (M14) was 31.6 µM (inactive) and the GI50 (RPMI-8226) was > 100 µM (inactive). For the same compound, the GI50 (U-251) was 47.6 µM (inactive), the GI50 (SNB-75) was 20.8 µM (inactive) and the GI50 (CAKI-1) was > 100 µM (inactive). For the same compound, the GI50 (HOP-62) was 46.1 µM (inactive), the GI50 (A549) was 34.6 µM (inactive) and the GI50 (SF-268) was > 100 µM (inactive). The GI50 (NCI-H226) was 36.7 µM (inactive).
`N#CC(C(=O)CCC(=O)Nc1ccc(Cl)cc1)c1ccccc1Cl` (centres undefined) was tested, and the GI50 (SF-295) was > 100 µM (inactive), the GI50 (SNB-78) was > 100 µM (inactive) and the GI50 (SF-539) was > 100 µM (inactive). The GI50 (ACHN) was 54.8 µM (inactive), the GI50 (RXF 631) was > 100 µM (inactive) and the GI50 (SK-MEL-5) was > 100 µM (inactive). For the same compound, the GI50 (MOLT-4) was > 100 µM (inactive), the GI50 (KM12) was 43.1 µM (inactive) and the GI50 (Malme-3M) was > 100 µM (inactive). For the same compound, the GI50 (SK-OV-3) was > 100 µM (inactive), the GI50 (LXFL 529) was 13.4 µM (inactive) and the GI50 (M19-MEL) was > 100 µM (inactive). For the same compound, the GI50 (NCI-H522) was > 100 µM (inactive), the GI50 (NCI-H23) was 93.1 µM (inactive) and the GI50 (OVCAR-4) was > 100 µM (inactive). The GI50 (UACC-62) was 16 µM (inactive), the GI50 (HCT-116) was 61.1 µM (inactive) and the GI50 (COLO 205) was > 100 µM (inactive). The GI50 (HCT-15) was 21 µM, the GI50 (SW-620) was > 100 µM (inactive) and the GI50 (SK-MEL-2) was 51.6 µM (inactive). For the same compound, the GI50 (KM-20L2) was 17.1 µM (inactive), the GI50 (TK-10) was > 100 µM (inactive) and the GI50 (DMS-273) was > 100 µM (inactive). The GI50 (K562) was 18.4 µM (inactive), the GI50 (A498) was > 100 µM (inactive) and the GI50 (UACC-257) was > 100 µM (inactive). The GI50 (UO-31) was > 100 µM (inactive), the GI50 (786-0) was > 100 µM (inactive) and the GI50 (OVCAR-3) was > 100 µM (inactive). For the same compound, the GI50 (NCI-H460) was > 100 µM (inactive), the GI50 (SK-MEL-28) was > 100 µM (inactive) and the GI50 (OVCAR-5) was 50.5 µM (inactive). For the same compound, the GI50 (SNB-19) was > 100 µM (inactive), the GI50 (XF498) was > 100 µM (inactive) and the GI50 (DLD-1) was 74.1 µM (inactive). The GI50 (OVCAR-8) was > 100 µM (inactive), the GI50 (DMS-114) was > 100 µM (inactive) and the GI50 (IGROV-1) was > 100 µM (inactive). The GI50 (SN12C) was > 100 µM (inactive), the GI50 (HL-60) was > 100 µM (inactive) and the GI50 (M14) was 47.8 µM (inactive). For the same compound, the GI50 (EKVX) was > 100 µM (inactive), the GI50 (RPMI-8226) was > 100 µM (inactive) and the GI50 (U-251) was > 100 µM (inactive). For the same compound, the GI50 (SNB-75) was 45.9 µM (inactive), the GI50 (CAKI-1) was 89.3 µM (inactive) and the GI50 (CCRF-CEM) was > 100 µM (inactive). The GI50 (HOP-92) was > 100 µM (inactive), the GI50 (A549) was > 100 µM (inactive) and the GI50 (SF-268) was 32.1 µM (inactive). The GI50 (NCI-H226) was > 100 µM (inactive).
